# Laboratory results as given in ChEMBL document CHEMBL1134933, “Hydroxamate based inhibitors of adenylyl cyclase. Part 2: the effect of cyclic linkers on P-site binding” (Bioorg Med Chem Lett, 2002).
# Target: Adenylate cyclase type 5 (Homo sapiens, UniProt O95622)
# Assay: Inhibitory concentration against Type V Adenyl Cyclase enzyme
# Adenylate cyclase type 5, sequence (O95622 whole entry): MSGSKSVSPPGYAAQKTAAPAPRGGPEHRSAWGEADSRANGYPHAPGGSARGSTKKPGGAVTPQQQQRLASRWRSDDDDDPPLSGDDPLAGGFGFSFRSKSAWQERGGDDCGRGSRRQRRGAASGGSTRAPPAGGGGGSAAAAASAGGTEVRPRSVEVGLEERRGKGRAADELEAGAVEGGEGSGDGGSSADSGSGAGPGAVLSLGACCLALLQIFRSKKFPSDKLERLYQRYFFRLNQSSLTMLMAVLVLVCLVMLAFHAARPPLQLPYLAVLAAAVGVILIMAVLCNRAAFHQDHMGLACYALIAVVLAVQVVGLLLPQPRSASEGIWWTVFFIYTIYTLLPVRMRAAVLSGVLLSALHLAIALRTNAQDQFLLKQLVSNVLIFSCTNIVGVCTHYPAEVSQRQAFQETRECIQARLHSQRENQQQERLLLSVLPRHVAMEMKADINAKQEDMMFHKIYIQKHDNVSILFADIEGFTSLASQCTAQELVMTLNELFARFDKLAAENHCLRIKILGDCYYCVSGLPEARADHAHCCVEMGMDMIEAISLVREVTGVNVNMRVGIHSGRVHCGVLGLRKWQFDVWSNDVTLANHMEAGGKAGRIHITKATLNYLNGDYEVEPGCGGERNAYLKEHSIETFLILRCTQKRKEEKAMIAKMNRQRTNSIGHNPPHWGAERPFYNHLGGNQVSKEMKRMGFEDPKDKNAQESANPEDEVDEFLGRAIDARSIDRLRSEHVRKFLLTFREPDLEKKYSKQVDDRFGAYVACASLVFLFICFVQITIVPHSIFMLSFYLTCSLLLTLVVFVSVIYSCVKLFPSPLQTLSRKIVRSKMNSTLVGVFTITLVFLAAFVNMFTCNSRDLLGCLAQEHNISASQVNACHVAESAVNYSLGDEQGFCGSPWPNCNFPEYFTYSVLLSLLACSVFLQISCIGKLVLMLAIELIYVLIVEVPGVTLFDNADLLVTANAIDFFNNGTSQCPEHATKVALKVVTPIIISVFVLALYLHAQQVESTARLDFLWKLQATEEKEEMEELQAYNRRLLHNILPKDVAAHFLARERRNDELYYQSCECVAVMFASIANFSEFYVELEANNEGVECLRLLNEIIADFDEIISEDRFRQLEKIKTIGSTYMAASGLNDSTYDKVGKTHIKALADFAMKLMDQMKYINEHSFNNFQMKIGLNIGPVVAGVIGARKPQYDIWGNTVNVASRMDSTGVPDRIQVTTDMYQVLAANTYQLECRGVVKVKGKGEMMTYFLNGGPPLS
row,IC50 [µM],SMILES
1,> 200,Nc1ncnc2c1ncn2[C@@H]1CC[C@@H](OCC(=O)O)C1
2,> 200,Nc1ncnc2c1ncn2[C@H]1CC[C@@H](OCC(=O)O)C1
3,78,Nc1ncnc2c1ncn2[C@H]1C=C[C@@H](OCC(=O)O)C1
4,98,Nc1ncnc2c1ncn2[C@@H]1C=C[C@H](OCC(=O)O)C1
5,79,Nc1ncnc2c1ncn2[C@@H]1CC[C@H](OCC(=O)O)C1
6,72,Nc1ncnc2c1ncn2[C@@H]1C=C[C@@H](OCC(=O)O)C1
7,> 200,Nc1ncnc2c1ncn2[C@H]1CC[C@H](OCC(=O)O)C1
8,> 200,Nc1ncnc2c1ncn2[C@H]1C=C[C@H](OCC(=O)O)C1
9,102,Nc1ncnc2c1ncn2[C@@H]1C=C[C@H](OCC(=O)NO)C1 (stereo in doubt; 5a)
10,13.6,Nc1ncnc2c1ncn2[C@H]1C=C[C@@H](OCC(=O)NO)C1 (stereo in doubt; 5b)
11,116,Nc1ncnc2c1ncn2[C@H]1C=C[C@@H](OCC(=O)NO)C1 (stereo in doubt; 5c)
12,96,Nc1ncnc2c1ncn2[C@@H]1C=C[C@H](OCC(=O)NO)C1 (stereo in doubt; 5d)
13,110,Nc1ncnc2c1ncn2[C@H]1CC[C@@H](OCC(=O)NO)C1 (stereo in doubt; 8a)
14,10.8,Nc1ncnc2c1ncn2[C@@H]1CC[C@H](OCC(=O)NO)C1 (stereo in doubt; 8b)
15,> 200,Nc1ncnc2c1ncn2[C@H]1CC[C@@H](OCC(=O)NO)C1 (stereo in doubt; 8c)
16,109,Nc1ncnc2c1ncn2[C@@H]1CC[C@H](OCC(=O)NO)C1 (stereo in doubt; 8d)
